From ChEMBL document CHEMBL1201862, “PubChem BioAssay data set” (2004)
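Interpolation was linear, between the two tested concentrations surrounding the appropriate level; five concentrations were tested over 48 hours in 96-well plates. GI50 = concentration required for 50% inhibition of growth.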 Activity calls are given as the source filed them. No stated cut-off is given here; in the data, active = GI50 up to about 1.1 µM and inactive = higher.

How the values were obtained:
Assay in all cases: NCI-60 cell line screen, 48 h
A549 = test system: A549
NCI-H522 = test system: NCI-H522
A498 = test system: A498
OVCAR-5 = test system: OVCAR-5
DU-145 = test system: DU-145
HCT-116 = test system: HCT-116
UACC-62 = test system: UACC-62
HOP-92 = test system: HOP-92
UO-31 = test system: UO-31
786-0 = test system: 786-0
SNB-75 = test system: SNB-75
SK-OV-3 = test system: SK-OV-3
OVCAR-3 = test system: OVCAR-3
RXF 393 = test system: RXF 393
SF-268 = test system: SF-268
CAKI-1 = test system: CAKI-1
Malme-3M = test system: Malme-3M
KM12 = test system: KM12
NCI-H226 = test system: NCI-H226
MOLT-4 = test system: MOLT-4

Measured: GI50

O=C(c1ccc(Cl)cc1)N(C(=S)OC12CC3CC(CC(C3)C1)C2)c1ccccc1
inactive: A549 31.9 µM | NCI-H522 21.1 µM | A498 64.7 µM | OVCAR-5 45.6 µM | DU-145 76.4 µM | HCT-116 33.5 µM | UACC-62 40.6 µM | HOP-92 34 µM | UO-31 27 µM | 786-0 29.6 µM | SNB-75 42.9 µM | SK-OV-3 53.1 µM | OVCAR-3 44.6 µM | RXF 393 99.8 µM | SF-268 43.3 µM | CAKI-1 35.2 µM | Malme-3M 54.3 µM | KM12 39.1 µM | NCI-H226 30.9 µM | MOLT-4 26.9 µM

CCSc1nc(N2CCOCC2)c2cn[nH]c2n1
inactive: A549 76.9 µM | NCI-H522 35 µM | A498 4.6 µM | OVCAR-5 77.4 µM | DU-145 > 100 µM | HCT-116 > 100 µM | UACC-62 20.7 µM | HOP-92 48 µM | UO-31 21.5 µM | 786-0 > 100 µM | SNB-75 71.1 µM | SK-OV-3 86.3 µM | OVCAR-3 52.1 µM | RXF 393 > 100 µM | SF-268 > 100 µM | CAKI-1 28.2 µM | Malme-3M > 100 µM | KM12 58.9 µM | NCI-H226 > 100 µM | MOLT-4 > 100 µM

N#CC1N(C(=O)c2ccc(F)cc2)c2ccccc2N1C(=O)c1ccc(F)cc1
inactive: A549 > 100 µM | NCI-H522 34.4 µM | A498 > 100 µM | OVCAR-5 > 100 µM | DU-145 32.9 µM | HCT-116 42.3 µM | UACC-62 37.6 µM | HOP-92 18.5 µM | UO-31 37.7 µM | 786-0 74.5 µM | SNB-75 30.7 µM | SK-OV-3 > 100 µM | OVCAR-3 19.9 µM | RXF 393 71.6 µM | SF-268 > 100 µM | CAKI-1 62.8 µM | Malme-3M 68.9 µM | KM12 91.6 µM | NCI-H226 31.1 µM | MOLT-4 17.3 µM

CC1(C)OC2CN(C(=O)OCc3ccccc3)C(CO)C2O1 (stereo not given)
inactive: A549 > 100 µM | NCI-H522 > 100 µM | A498 > 100 µM | OVCAR-5 > 100 µM | DU-145 > 100 µM | HCT-116 > 100 µM | UACC-62 > 100 µM | HOP-92 > 100 µM | UO-31 > 100 µM | 786-0 > 100 µM | SNB-75 > 100 µM | SK-OV-3 > 100 µM | OVCAR-3 > 100 µM | RXF 393 > 100 µM | SF-268 > 100 µM | CAKI-1 > 100 µM | Malme-3M > 100 µM | KM12 > 100 µM | NCI-H226 > 100 µM | MOLT-4 > 100 µM

COc1ccc(COCC[C@H](C)OC2OC(CO[Si](C)(C)C(C)(C)C)C(O)C(O)C2O)cc1 (stereo not given in full)
inactive: A549 > 100 µM | NCI-H522 > 100 µM | A498 > 100 µM | OVCAR-5 > 100 µM | DU-145 > 100 µM | HCT-116 > 100 µM | UACC-62 > 100 µM | HOP-92 > 100 µM | UO-31 81.8 µM | 786-0 > 100 µM | SNB-75 44.2 µM | SK-OV-3 > 100 µM | OVCAR-3 > 100 µM | RXF 393 > 100 µM | SF-268 > 100 µM | CAKI-1 > 100 µM | Malme-3M > 100 µM | KM12 > 100 µM | NCI-H226 > 100 µM | MOLT-4 56.9 µM

COC(=O)C1OC(O[C@H]2CC[C@]3(C)[C@H]4CC=C5[C@@H]6CC(C)(C)CC[C@]6(C(=O)OC)CC[C@@]5(C)[C@]4(C)CC[C@H]3C2(C)C)C(O)C(O)C1O (stereo not given in full)
inactive: A549 7.14 µM | NCI-H522 15.4 µM | A498 19.8 µM | OVCAR-5 14.6 µM | DU-145 14.5 µM | HCT-116 12.3 µM | UACC-62 14.7 µM | HOP-92 19.4 µM | UO-31 19.3 µM | 786-0 6.73 µM | SNB-75 17.1 µM | SK-OV-3 20.2 µM | OVCAR-3 4.34 µM | RXF 393 5.62 µM | SF-268 17.8 µM | CAKI-1 8.85 µM | Malme-3M 21 µM | KM12 7.52 µM | NCI-H226 18.3 µM | MOLT-4 11.4 µM

O=c1[nH]c2cc([N+](=O)[O-])c(N(CCO)CCO)c([N+](=O)[O-])c2[nH]1
inactive: A549 35.2 µM | NCI-H522 28.1 µM | A498 22.2 µM | OVCAR-5 31.9 µM | DU-145 39.4 µM | HCT-116 27.7 µM | UACC-62 24.1 µM | HOP-92 41 µM | UO-31 35.1 µM | 786-0 35.4 µM | SNB-75 23.6 µM | SK-OV-3 27 µM | OVCAR-3 16.9 µM | RXF 393 16.7 µM | SF-268 37.4 µM | CAKI-1 29 µM | Malme-3M 61.2 µM | KM12 22.6 µM | NCI-H226 24 µM | MOLT-4 24.5 µM
